Among the data in a melting point compilation (Tetko et al.; mined from patent text by program, amines drawn as free bases though some values may be those of a salt) are melting point values, retold here.

The molecule `O=C(CCl)Nc1ccc(NNC(=O)c2ccccc2CO)cc1` came in with a melting point of 172 to 173 °C. `CC(=O)Nc1cc(Oc2ccc3c(C(=O)Nc4ccc(N5CCS(=O)(=O)CC5)c(C(F)(F)F)c4)cccc3c2)ncn1` showed a melting point of 280 to 287 °C. The figure for `COc1cc(N2CCCC2)ccc1CN1C(=O)C(C)(c2ccccc2Cl)c2cc(Cl)ccc21` (configuration not stated) is 198 °C. The figure for `COC(=O)C1(CCCCCCCCCCCCC2(C(=O)NC3CC3)CC2)CC1` is 50.6 to 53 °C; for `COc1ccc(-c2cnc3[nH]cc(C(=O)NC4CCN(C(C)=O)C4)c3n2)cc1OC` (configuration not stated) it is 211 to 212 °C; for `CCCn1c(=O)[nH]c(=O)c2[nH]c(/C=C/c3ccccc3)nc21` it is > 295 °C. Turning to `CN1OCCN(c2ccc([N+](=O)[O-])c(C(F)(F)F)c2)C1=O`, the melting point was 104 to 105 °C. The molecule `COC(=O)c1cccc(-c2nc(-c3ccc(C(F)(F)F)cc3)cs2)c1` had a melting point of 142 to 143 °C.

In turn, `COc1ccc(C(=O)c2ccc(OCc3nc(-c4ccccc4)oc3C)nc2)c(OC(C)C(=O)O)c1` (configuration not stated) registered a melting point of 162 to 163 °C. `NC1CN(c2cc3c(cc2F)c(=O)c(C(=O)O)cn3C2CC2)C1` gave a melting point of 246 to 247 °C. For `Cc1cc2c(-c3cccc(CCC(=O)O)c3)c(CC(=O)Nc3ccc(F)cc3C(F)(F)F)c(=O)oc2cc1Cl`, the melting point was in the range of 212 to 214 °C. The figure for `CN(C)Cc1ccc(CSCCNC2=NS(=O)(=O)N=C2N(C)C)o1` is 139 to 142 °C; for `CCOC(=O)Cn1nc(-c2cc(C(C)(C)C)c(O)c(C(C)(C)C)c2)c2cccnc21` it is 117 to 120 °C; for `CCOC(=O)CCCN(O)C(=O)NCCc1ccc(OC)c(OC)c1` it is 75 to 76 °C. In turn, `CC(=O)OCC1CC(=O)NN=C1c1ccc(N2CCOCC2)c(C#N)c1` (configuration not stated) registered a melting point of 60 to 69 °C. The figure for `CC=Cn1c(C(O)(c2ccc(Cl)cc2)c2ccc(Cl)cc2)nc(C)c1C` is 127 to 128 °C; for `O=C(c1ccccc1)c1nc(Br)c2n1CCC2C(=O)O` (configuration not stated) it is 190 to 192 °C. The figure for `COc1ccc(S(=O)(=O)N2C(=O)C(OC(=O)Oc3ccccc3)(c3ccccc3Cl)c3cc(Cl)c(OC)cc32)c(OC)c1` (configuration not stated) is 162 to 163 °C; for `Cn1cc(Br)nc(Nc2ccc(C(=O)N3CCOCC3)cc2)c1=O` it is 276 to 277 °C; for `COC(=O)CN1CCN(c2cccc(-c3nc4cc(OC)cc(OC)c4c(=O)[nH]3)n2)CC1` it is 176 to 177 °C. `O=C1CCC(N2Cc3c(OCc4ccc5ncc(CN6CCOCC6)n5c4)cccc3C2=O)C(=O)N1` (configuration not stated) yielded a melting point of 170 to 172 °C. In turn, `Cc1cc2c(NCc3ccc4c(c3)OCO4)nc(Cl)nc2s1` gave a melting point of 162 °C. The figure for `O=C1CCC(N2Cc3cc(CNC(=O)c4cccc(C(F)(F)F)c4)ccc3C2=O)C(=O)N1` (configuration not stated) is 244 to 246 °C; for `O=C(N1CCN(c2ncccn2)CC1)N1CC(Oc2cccc(C(F)(F)F)c2)C1` it is 127 to 128 °C; for `CCOC(=O)C1=C(C)NC(N=CN2CCCCC2)=C(C(=O)OCC)C1c1ccccc1Cl` (configuration not stated) it is 145 °C. `COC(=O)CNC(=O)c1ccc(C(=O)NS(=O)(=O)c2ccc(CCNC(=O)C(C)C)cc2)cn1` displayed a melting point of 197 to 199 °C.

In the case of `C/C(=C\c1ccc(C(=O)Nc2nnn[nH]2)cc1)c1ccc2c(c1)C(C)(C)CCO2`, the melting point is > 250 °C. On to `CCOC(=N)c1c(O)ccc2ccccc12`, for which the melting point is 145 to 146 °C. The figure for `CCCCc1ccc(-n2c(-c3ccc(SC)cc3)nc(SC)c(C#N)c2=O)cc1` is 138 to 141 °C. Consider `COc1ccccc1N1CCN(CCNCCCN2CC=C(c3c[nH]c4cc(Cl)ccc34)CC2)CC1`, for which the melting point was in the range of 71 to 73 °C. The molecule `O=C(O)CS(=O)(=O)CC(F)(F)F` showed a melting point of 145 °C. The figure for `COC(=O)c1nn(-c2ccccc2)c2sc(CN3CCOCC3)cc2c1=O` is 167 to 169 °C; for `COc1nn(-c2cccc(NC(C)=O)c2)c(=O)n(Cc2ccc3c(c2)OC(F)(F)O3)c1=O` it is 184 °C; for `Cc1cccc(CC(=O)NC(C)C)c1NC(=O)c1cc(C(F)(F)F)nn1-c1ncccc1Cl` it is 206 to 207 °C.

In the case of `COc1ccc(OC(=O)N2c3cc(Cl)ccc3NC(=O)[C@@H]2C)cc1`, the melting point was 187 to 190 °C.

`COC(=O)c1nc2cccc(C(F)(F)F)c2c(O)c1C(=O)OC` yielded a melting point of 180 to 182 °C. As to `CCC(=O)c1ccc(C(=O)CC)cc1`, the melting point is 98 to 101 °C. The figure for `CCC1(CCCCCBr)C(=O)Nc2ccccc21` (configuration not stated) is 77 to 78 °C; for `OC(CCn1ccnc1)c1ccc2c(c1)Cc1ccccc1-2` (configuration not stated) it is 144 to 146 °C; for `CC(C)(C)c1cc(CN(c2cccnc2)S(=O)(=O)c2ccccc2Br)cc(C(C)(C)C)c1O` it is 105 to 107 °C. The figure for `N#Cc1ccc(C2CC(n3ccnc3)c3ccccc3N2)cc1` (configuration not stated) is 166 to 168 °C.

For `O=C(O)C(=O)c1ccc(O)c([N+](=O)[O-])c1`, the melting point lay within 139 to 140 °C. The figure for `CS(=O)(=O)Nc1ccc(CNC(=O)c2cccnc2Oc2ccc(F)cc2)cc1` is 107 to 109 °C; for `CN1c2ccccc2C(=C2CCN(C(=O)OCC(Cl)(Cl)Cl)CC2)c2ccccc21` it is 190 to 192 °C. The figure for `Cc1cc(C)c(C#N)c(SSc2ccc([N+](=O)[O-])cc2C(Cl)(Cl)Cl)n1` is 132 °C. The figure for `BrCCCCOc1ccc(OCc2ccccc2)cc1` is 70 to 72 °C; for `O=C(O)CC1(CCCCCCCCCCC2(C(=O)O)CC2)CC1` it is 71.9 to 74.3 °C. As for `CCC(Cc1ccc(OC)c(C(=O)NCc2ccc(C(F)(F)F)cc2)c1)C(=O)O` (configuration not stated), the melting point lay within 128 to 130 °C.

Take `O=S(=O)(CC1CC1)c1nc(-c2ccccn2)c(-c2ccccn2)[nH]1`: the melting point fell in the range of 210 to 212 °C. Turning to `COc1ccc2[nH]nc(N3CCN(CCCc4c(C)[nH]c5ccccc45)CC3)c2c1`, the melting point lay in the range of 145 to 147 °C. Turning to `CNC(=O)CCSSCCC(=O)NC`, the melting point fell in the range of 113 to 115 °C. `Cc1cc(S(=O)(=O)O)ccc1OCc1ccccc1C(=O)O`: the melting point is 242 to 244 °C.

With `CCOC(=O)CC(=O)c1cc(Cl)c(F)c(Cl)c1F`, the melting point amounted to 133 °C. `CCCCOC(=O)NC1(c2ccccc2Cl)CCCCC1=O` (configuration not stated): the melting point is 130 to 132 °C.

With `CSc1ccc(-c2nn(Cc3ccc(Cl)cc3Cl)c(=O)cc2-c2ccc(F)cc2)cc1`, the melting point was 139 to 140 °C.

For `CCc1cc(CCc2nc3ccccc3o2)c(=S)[nH]c1C`, the melting point is 199 to 201 °C. The figure for `CC(C)c1cccc(C(C)C)c1NS(=O)(=O)CC(=O)O` is 153 to 155 °C; for `Cc1cc(C(=O)NS(=O)(=O)c2ccccc2Cl)nc(Cl)n1` it is 170 to 171 °C. The figure for `COC(=O)NC(C)=NS(=O)(=O)NC(C)C` is 193 to 196 °C; for `c1ccc(OCCCCN2CCNCC2)cc1` it is 35 to 36 °C. The figure for `N#Cc1ccc2c(c1)N(C1CC1)CNS2(=O)=O` is 178 to 180 °C; for `CCc1cccc(C)c1CNc1cc(Br)cc2c1nc(CO)n2C` it is 206 to 208 °C. In the case of `O=C1CSC(=S)N1N=c1sc2ccc([N+](=O)[O-])cc2s1`, the melting point was determined as 315 °C. The figure for `COc1ccc2c(C(=O)O)cc3cc4c(cc3c2c1)OCO4` is 293 to 295 °C; for `C=CC(C)(C)C(=O)COc1ccc(-c2ccccc2)cc1` it is 42 to 44 °C.

`CN1C=Cc2ccccc2CC1=O` registered a melting point of 81 to 82 °C. `CC(=O)N(C)c1cc(-c2ccnc3c(C(=O)c4cccs4)cnn23)ccc1Cl` yielded a melting point of 191 to 193 °C. `CSc1ccc(-c2cnc3ccc(-c4nnc(C)o4)cn23)cc1`: the melting point fell in the range of 180 to 181 °C. The figure for `CC(=CCO)CS(=O)(=O)c1ccccc1` is 55 to 56.5 °C; for `COc1ccc(N2C3CCC2CC(=O)C3)cc1` it is 133 to 134 °C. In turn, `COc1ccc(Cl)cc1-n1c(N)nnc1-c1ccc(C(F)(F)F)cc1` returned a melting point of 247 to 248 °C. On to `COc1ccc(C(=O)CNc2ccccc2)cc1`, for which the melting point was in the range of 105 to 106 °C. Molecule `CCOC(=O)c1cc(-c2ccc(C)cc2)n(-c2ccc(S(N)(=O)=O)cc2)n1` had a melting point of 220 to 222 °C. The figure for `O=C(O)COc1cccc(C(=O)O)c1OCC(=O)O` is 195 to 197 °C; for `CCCCc1c(C(=O)c2ccc(O)cc2)n(C)c2ccc([N+](=O)[O-])cc12` it is 172 °C. `CC(C)CCc1ccc(C#N)c(=O)[nH]1` displayed a melting point of 110 to 112 °C. `CC(CCC1C(C)CCCC1(C)C)Oc1ccc(C(=O)O)cc1` (configuration not stated) showed a melting point of 114 to 118 °C. With `CSc1nccn1-c1cccc(C2=Nc3cc(O)c(-c4ccccc4F)cc3NC(=O)C2)c1`, the melting point was > 250 °C. The figure for `CCc1c(-c2ccc(OC)cc2)c2cc(C(C)=O)c3cc(OC)cc1n32` is 137 to 139 °C; for `COC(=O)Cc1cc2c(c([N+](=O)[O-])c1)N(C(C)=O)CC2` it is 136 to 137 °C; for `O=C1N(N(c2ccccc2)c2ccccc2)c2ccccc2C1(Cc1ccncc1)Cc1ccncc1` it is 184 to 186 °C.

For `COc1cccc(Oc2c(NS(=O)(=O)c3ccc(C(C)(C)C)cc3)ncnc2OCCOc2ncc(-c3ccccc3)cn2)c1`, the melting point was in the range of 160 to 161 °C.

`O=C(Cn1nccc1-c1ccc(Oc2ccc(F)cc2)cc1)N1CCOCC1` gave a melting point of 122 to 124 °C. The figure for `Cc1cnc2c(c1)cc1c3c(cc([N+](=O)[O-])cc32)C(=O)OC1=O` is 261 to 262 °C. As to `CC(=O)c1cc(-c2ccc(C(C)(C)C)cc2)c2c(c1)C(C)(C)CCC2(C)C`, the melting point amounted to 134 °C. `CCCc1c(SCCCOc2ccc3c(=O)cc(C(=O)OCC)oc3c2CCC)ccc2c(=O)cc(C(=O)OCC)[nH]c12` yielded a melting point of 168 to 170 °C. `CC(C)CNC(=O)C=CC=CCCCCCCCOc1cccc(Cl)n1` registered a melting point of 80 to 81 °C.
